In US12600726B2, “Antagonists of the muscarinic acetylcholine receptor M4” (Vanderbilt University, priority 2017, dated 2026):

Columns and labels:
[1] = target: T1, Rat M4 (Rattus norvegicus, UniProt P08485); experiment: mAChR M4 cell-based functional calcium flux assay (rat M4/Gqi5/CHO cells); conditions: for Emin (rat M4): % ACh maximum at 30 μM
T1 construct: expressed in transfected cells; host or cells: CHO-K1 (ATCC), stably expressing M4 and Gqi5
T1 sequence (P08485 1-478): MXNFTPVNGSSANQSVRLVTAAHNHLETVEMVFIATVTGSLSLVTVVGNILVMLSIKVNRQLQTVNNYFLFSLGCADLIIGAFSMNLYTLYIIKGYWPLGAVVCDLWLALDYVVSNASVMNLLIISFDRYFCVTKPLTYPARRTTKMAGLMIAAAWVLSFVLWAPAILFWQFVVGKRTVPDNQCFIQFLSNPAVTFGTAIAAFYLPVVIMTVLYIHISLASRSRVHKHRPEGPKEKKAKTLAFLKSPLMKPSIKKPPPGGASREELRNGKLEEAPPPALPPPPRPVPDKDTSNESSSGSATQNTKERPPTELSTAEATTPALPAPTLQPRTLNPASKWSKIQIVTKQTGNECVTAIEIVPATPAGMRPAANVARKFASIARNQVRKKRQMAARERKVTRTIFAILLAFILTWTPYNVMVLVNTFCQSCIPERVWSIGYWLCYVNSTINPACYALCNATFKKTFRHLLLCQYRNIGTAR
Procedure, shortened: (§1)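 CHO-K1 cells stably co-expressing M4 of the given species with chimeric Gqi5 were loaded with Fluo-4 AM and read for calcium flux. Compounds (10-point, 1:3 dilutions) were added first, followed by an acetylcholine EC20 at 143 s and an EC80 at 268 s. IC50 reflects the concentration-dependent fall in the EC80 response, fitted with a four-parameter logistic.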

[2] = target: T2, Human M4 (Homo sapiens, UniProt P08173); experiment: mAChR M4 cell-based functional calcium flux assay (human M4/Gqi5/CHO cells); conditions: for Emin (human M4): % ACh maximum at 30 μM; for IC50: decrease of the response to an EC80 concentration of acetylcholine
T2 construct: expressed in transfected cells; host or cells: CHO-K1 (ATCC), stably expressing M4 and Gqi5
T2 sequence (P08173 1-479): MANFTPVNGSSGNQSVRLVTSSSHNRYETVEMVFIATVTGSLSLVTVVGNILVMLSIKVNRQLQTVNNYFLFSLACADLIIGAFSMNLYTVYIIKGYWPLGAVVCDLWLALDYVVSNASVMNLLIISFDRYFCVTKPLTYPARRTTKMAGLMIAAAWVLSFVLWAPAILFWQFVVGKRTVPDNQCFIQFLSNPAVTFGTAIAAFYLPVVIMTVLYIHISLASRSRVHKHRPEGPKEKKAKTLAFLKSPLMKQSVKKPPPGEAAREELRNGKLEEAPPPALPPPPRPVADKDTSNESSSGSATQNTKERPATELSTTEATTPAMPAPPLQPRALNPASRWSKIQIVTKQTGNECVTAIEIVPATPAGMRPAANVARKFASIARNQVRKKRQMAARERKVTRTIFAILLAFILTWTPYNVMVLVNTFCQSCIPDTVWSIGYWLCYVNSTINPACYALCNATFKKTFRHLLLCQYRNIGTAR
Procedure, shortened: as §1

[3] = decrease of the response to an EC80 concentration of acetylcholine
[4] = cells printed in μM, decrease of the EC80 acetylcholine response

SMILES | Emin (rat M4) [1] | IC50 [1, 3] | Emin (human M4) [2] | IC50 [2] | IC50 [1, 4]
Cn1nc(C(F)(F)F)cc1-c1ccc(NCC2CC23CCN(CCC(C)(C)C)CC3)nn1 (stereo not drawn) [Compound 39, N-[[6-(3,3-dimethylbutyl)-6-azaspiro[2.5]octan-2-yl]methyl]-6-[2-methyl-5-(trifluoromethyl)pyrazol-3-yl]pyridazin-3-amine] | 3.42% | 0.0581 µM | 2.60% | 0.0137 µM | –
CC(C)(C)CCN1CCC2(CC1)CC2CNc1ccc(-c2cccc(F)c2Cl)nn1 (stereo not drawn) [Compound 41, 6-(2-chloro-3-fluoro-phenyl)-N-[[6-(3,3-dimethylbutyl)-6-azaspiro[2.5]octan-2-yl]methyl]pyridazin-3-amine] | 3.33% | 0.105 µM | 2.24% | 0.016 µM | –
CC(C)(C)CCN1CCC2(CC1)CC2CNc1ccc(-c2cc(F)ccc2C#N)nn1 (stereo not drawn) [Compound 43, 2-[6-[[[6-(3,3-dimethylbutyl)-6-azaspiro[2.5]octan-2-yl]methyl]amino]pyridazin-3-yl]-4-fluoro-benzonitrile] | 3.33% | 0.199 µM | 2.34% | 0.023 µM | –
CC(C)(C)CCN1CCC2(CC1)CC2CNc1ccc(-c2ccc3ccncc3c2)nn1 (stereo not drawn) [Compound 44, N-[[6-(3,3-dimethylbutyl)-6-azaspiro[2.5]octan-2-yl]methyl]-6-(7-isoquinolyl)pyridazin-3-amine] | 3.41% | 0.0478 µM | 2.73% | 0.016 µM | –
CC(C)(C)CCN1CCC2(CC1)CC2CNc1ccc(-c2ccc3c(c2)OCO3)nn1 (stereo not drawn) [Compound 46, 6-(1,3-benzodioxol-5-yl)-N-[[6-(3,3-dimethylbutyl)-6-azaspiro[2.5]octan-2-yl]methyl]pyridazin-3-amine] | 3.11% | 0.117 µM | 3.06% | 0.0122 µM | –
CC(C)(C)CCN1CCC2(CC1)CC2CNc1ccc(-c2ccc3ccccc3c2)nn1 (stereo not drawn) [Compound 47, N-[[6-(3,3-dimethylbutyl)-6-azaspiro[2.5]octan-2-yl]methyl]-6-(2-naphthyl)pyridazin-3-amine] | 2.90% | 0.39 µM | 2.97% | 0.208 µM | –
CC(C)(C)CCN1CCC2(CC1)CC2CNc1ccc(-c2ccccc2OC(F)(F)F)nn1 (stereo not drawn) [Compound 48, N-[[6-(3,3-dimethylbutyl)-6-azaspiro[2.5]octan-2-yl]methyl]-6-[2-(trifluoromethoxy)phenyl]pyridazin-3-amine] | 2.26% | 0.387 µM | 2.63% | 0.0644 µM | –
CC(C)(C)CCN1CCC2(CC1)CC2CNc1ccc(-c2cnccc2C(F)(F)F)nn1 (stereo not drawn) [Compound 49, N-[[6-(3,3-dimethylbutyl)-6-azaspiro[2.5]octan-2-yl]methyl]-6-[4-(trifluoromethyl)-3-pyridyl]pyridazin-3-amine] | 2.44% | 0.0943 µM | 2.64% | 0.0128 µM | –
CCC(C)CN1CCC2(CC1)CC2CNc1ccc(-c2cn(C)nc2C)nn1 (stereo not drawn) [Compound 51, 6-(1,3-dimethylpyrazol-4-yl)-N-[[6-(2-methylbutyl)-6-azaspiro[2.5]octan-2-yl]methyl]pyridazin-3-amine] | 7.13% | 0.808 µM | 4.31% | 0.0495 µM | –
CCCC(C)CN1CCC2(CC1)CC2CNc1ccc(-c2cn(C)nc2C)nn1 (stereo not drawn) [Compound 52, 6-(1,3-dimethylpyrazol-4-yl)-N-[[6-(2-methylpentyl)-6-azaspiro[2.5]octan-2-yl]methyl]pyridazin-3-amine] | 5.80% | 0.578 µM | 3.9% | 0.0186 µM | –
CCN1CCC2(CC1)CC2CNc1ccc(-c2cn(C)nc2C)nn1 (stereo not drawn) [Compound 53, 6-(1,3-dimethylpyrazol-4-yl)-N-[(6-ethyl-6-azaspiro[2.5]octan-2-yl)methyl]pyridazin-3-amine] | 75.5% | – | 75.5% | – | > 10 µM
CCCN1CCC2(CC1)CC2CNc1ccc(-c2cn(C)nc2C)nn1 (stereo not drawn) [Compound 54, 6-(1,3-dimethylpyrazol-4-yl)-N-[(6-propyl-6-azaspiro[2.5]octan-2-yl)methyl]pyridazin-3-amine] | 53.6% | 9.49 µM | 19.4% | 4.69 µM | –
Cc1nn(C)cc1-c1ccc(NCC2CC23CCN(CC2CC2)CC3)nn1 (stereo not drawn) [Compound 55, N-[[6-(cyclopropylmethyl)-6-azaspiro[2.5]octan-2-yl]methyl]-6-(1,3-dimethylpyrazol-4-yl)pyridazin-3-amine] | 45.7% | – | 16.7% | 2.89 µM | > 10 µM

Results, then the compound that gave them:

Emin (rat M4) [1] | IC50 [1, 3] | Emin (human M4) [2] | IC50 [2] | IC50 [1, 4] | SMILES
3.44% | 0.0478 µM | 2.58% | 0.00315 µM | – | Cc1cnn(C)c1-c1ccc(NCC2CC23CCN(CCC(C)(C)C)CC3)nn1 (stereo not drawn) [Compound 35, N-[[6-(3,3-dimethylbutyl)-6-azaspiro[2.5]octan-2-yl]methyl]-6-(2,4-dimethylpyrazol-3-yl)pyridazin-3-amine]
4.52% | 0.0328 µM | 2.61% | 0.0061 µM | – | Cc1nn(C)c(C)c1-c1ccc(NCC2CC23CCN(CCC(C)(C)C)CC3)nn1 (stereo not drawn) [Compound 36, N-[[6-(3,3-dimethylbutyl)-6-azaspiro[2.5]octan-2-yl]methyl]-6-(1,3,5-trimethylpyrazol-4-yl)pyridazin-3-amine]
4.23% | 0.0593 µM | 3.00% | 0.00529 µM | – | Cc1noc(C)c1-c1ccc(NCC2CC23CCN(CCC(C)(C)C)CC3)nn1 (stereo not drawn) [Compound 37, N-[[6-(3,3-dimethylbutyl)-6-azaspiro[2.5]octan-2-yl]methyl]-6-(3,5-dimethylisoxazol-4-yl)pyridazin-3-amine]
4.05% | 0.024 µM | 3.30% | 0.00371 µM | – | Cn1nccc1-c1ccc(NCC2CC23CCN(CCC(C)(C)C)CC3)nn1 (stereo not drawn) [Compound 38, N-[[6-(3,3-dimethylbutyl)-6-azaspiro[2.5]octan-2-yl]methyl]-6-(2-methylpyrazol-3-yl)pyridazin-3-amine]
3.40% | 0.0173 µM | 2.97% | 0.00456 µM | – | CC(=O)Nc1ccc(-c2ccc(NCC3CC34CCN(CCC(C)(C)C)CC4)nn2)cc1 (stereo not drawn) [Compound 40, N-[4-[6-[[[6-(3,3-dimethylbutyl)-6-azaspiro[2.5]octan-2-yl]methyl]amino]pyridazin-3-yl]phenyl]acetamide]
2.94% | 0.0497 µM | 2.88% | 0.0112 µM | – | Cc1ccsc1-c1ccc(NCC2CC23CCN(CCC(C)(C)C)CC3)nn1 (stereo not drawn) [Compound 42, N-[[6-(3,3-dimethylbutyl)-6-azaspiro[2.5]octan-2-yl]methyl]-6-(3-methyl-2-thienyl)pyridazin-3-amine]
3.33% | 0.0539 µM | 2.89% | 0.00908 µM | – | CC(C)(C)CCN1CCC2(CC1)CC2CNc1ccc(-c2ccc3ncccc3c2)nn1 (stereo not drawn) [Compound 45, N-[[6-(3,3-dimethylbutyl)-6-azaspiro[2.5]octan-2-yl]methyl]-6-(6-quinolyl)pyridazin-3-amine]
3.70% | 0.0158 µM | 2.71% | 0.0024 µM | – | Cc1nn(C)cc1-c1ccc(NCC2CC23CCN(CCC(C)(C)C)CC3)nn1 (stereo not drawn) [Compound 50, N-[[6-(3,3-dimethylbutyl)-6-azaspiro[2.5]octan-2-yl]methyl]-6-(1,3-dimethylpyrazol-4-yl)pyridazin-3-amine]
4.14% | 0.0638 µM | 3.42% | 0.00506 µM | – | Cc1nn(C)cc1-c1ccc(NCC2CC23CCN(CC2CCCCC2)CC3)nn1 (stereo not drawn) [Compound 56, N-[[6-(cyclohexylmethyl)-6-azaspiro[2.5]octan-2-yl]methyl]-6-(1,3-dimethylpyrazol-4-yl)pyridazin-3-amine]
